Measured values from ChEMBL document CHEMBL1201862, “PubChem BioAssay data set” (2004).
Calls of active or inactive are those of the source.

Columns and labels:
[1] = molecular target: Peroxisome proliferator-activated receptor gamma/Nuclear receptor coactivator 1 (Homo sapiens, UniProt P37231); assay type: functional;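 further: agonist potency as compounds enhance coactivator SRC-1 recruitment to PPARgamma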
[2] = molecular target: Peroxisome proliferator-activated receptor gamma/Nuclear receptor coactivator 3 (Homo sapiens, UniProt P37231); assay type: functional;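 further: agonist potency for raising coactivator recruitment to the receptor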
[3] = molecular target: Peroxisome proliferator-activated receptor gamma/Nuclear receptor coactivator 2 (Homo sapiens, UniProt P37231); assay type: functional;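 further: agonist potency for raising coactivator recruitment to the receptor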
[4] = molecular target: DNA dC->dU-editing enzyme APOBEC-3G (Homo sapiens, UniProt Q9HC16); experiment: Dose Response confirmation of small molecule APOBEC3G DNA Deaminase Inhibitors via a fluorescence-based single-stranded DNA deaminase assay. [Related pubchem assays (depositor defined):AID493012, AID493028]; assay type: functional
[5] = molecular target: DNA dC->dU-editing enzyme APOBEC-3A (Homo sapiens, UniProt P31941); experiment: A3A deaminase inhibition for selectivity – biochemical, dose response (AID 504722); assay type: functional
[6] = HEK-293T cell viability reduction – luminescence, B-cell screen hits, cytotoxicity control for BCR NF-kB inhibitor project, dose response (AID 489021); assay type: functional, cell-based;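 further: HEK-293T cells carrying an NF-kB luciferase reporter; cells exposed to compound for about 14 hours before viability readout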
[7] = system: HEK293; experiment: EBV LMP1 TES2 canonical NF-kB signalling blockers – cell-based, HEK293, luciferase, cherry-pick, dose response (AID 588343); assay type: functional; conditions: Homo sapiens
[8] = system: HT-1080; experiment: HT1080 cell viability loss – fluorescence readout (AID 620); assay type: functional, cell-based; conditions: Homo sapiens
[9] = molecular target: Luciferin 4-monooxygenase (Photinus pyralis, UniProt P08659); experiment: Counter Screen for Luciferase-based Assay Positives. [Related pubchem assays: 620, 618, 411 ]
[10] = molecular target: Alkaline phosphatase, placental type (Homo sapiens, UniProt P05187); experiment: human placental alkaline phosphatase inhibition – biochemical, luminescence, confirmation (AID 1512); assay type: functional
[11] = molecular target: T1, Alkaline phosphatase, tissue-nonspecific isozyme (Homo sapiens, UniProt P05186); experiment: potency against alkaline phosphatase TNAP – biochemical, luminescent, dose response, SAR follow-up (AID 1056)
T1 sequence (P05186 whole entry): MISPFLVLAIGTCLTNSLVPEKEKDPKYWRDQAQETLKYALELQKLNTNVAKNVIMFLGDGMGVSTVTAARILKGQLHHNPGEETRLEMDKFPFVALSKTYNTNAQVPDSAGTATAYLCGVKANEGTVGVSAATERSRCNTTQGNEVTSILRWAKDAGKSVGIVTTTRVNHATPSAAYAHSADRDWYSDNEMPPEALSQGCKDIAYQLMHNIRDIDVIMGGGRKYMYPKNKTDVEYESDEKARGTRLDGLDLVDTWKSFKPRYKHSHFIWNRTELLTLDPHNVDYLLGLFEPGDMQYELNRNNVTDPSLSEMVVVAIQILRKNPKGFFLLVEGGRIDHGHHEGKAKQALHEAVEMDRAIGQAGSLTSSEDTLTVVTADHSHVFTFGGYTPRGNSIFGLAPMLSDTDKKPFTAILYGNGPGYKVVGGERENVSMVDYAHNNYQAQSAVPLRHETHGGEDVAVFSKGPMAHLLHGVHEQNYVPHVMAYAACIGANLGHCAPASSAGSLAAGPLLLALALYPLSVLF

[12] = molecular target: Glyceraldehyde-3-phosphate dehydrogenase (Homo sapiens, UniProt P04406)
[13] = molecular target: G-protein coupled receptor 55 (Homo sapiens, UniProt Q9Y2T6); experiment: inhibition of LPI-stimulated GPR55 beta-arrestin translocation – imaging, U2OS, beta-arrestin-GFP, LPI agonist, primary screen (AID 2013); assay type: functional;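 further: antagonist potency measured as reduced agonist-driven arrestin aggregation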
[14] = viability of HCT116 lacking mutant beta-catenin – cell-based, human colon tumor, dose response (AID 1045); assay type: functional;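 further: HCT116 colon tumor cells with beta catenin knocked out; cells exposed to compound for 60 hours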
[15] = molecular target: T2, Protein RecA (Mycobacterium tuberculosis, UniProt P9WHJ3); experiment: Fluorescence Cell-Free Homogeneous Dose Retest to Identify Inhibitors of RecA-Intein Splicing Activity. [Related pubchem assays (depositor defined):AID2097, AID2223, AID489010, AID492950]; assay type: functional
T2 sequence (P9WHJ3 whole entry): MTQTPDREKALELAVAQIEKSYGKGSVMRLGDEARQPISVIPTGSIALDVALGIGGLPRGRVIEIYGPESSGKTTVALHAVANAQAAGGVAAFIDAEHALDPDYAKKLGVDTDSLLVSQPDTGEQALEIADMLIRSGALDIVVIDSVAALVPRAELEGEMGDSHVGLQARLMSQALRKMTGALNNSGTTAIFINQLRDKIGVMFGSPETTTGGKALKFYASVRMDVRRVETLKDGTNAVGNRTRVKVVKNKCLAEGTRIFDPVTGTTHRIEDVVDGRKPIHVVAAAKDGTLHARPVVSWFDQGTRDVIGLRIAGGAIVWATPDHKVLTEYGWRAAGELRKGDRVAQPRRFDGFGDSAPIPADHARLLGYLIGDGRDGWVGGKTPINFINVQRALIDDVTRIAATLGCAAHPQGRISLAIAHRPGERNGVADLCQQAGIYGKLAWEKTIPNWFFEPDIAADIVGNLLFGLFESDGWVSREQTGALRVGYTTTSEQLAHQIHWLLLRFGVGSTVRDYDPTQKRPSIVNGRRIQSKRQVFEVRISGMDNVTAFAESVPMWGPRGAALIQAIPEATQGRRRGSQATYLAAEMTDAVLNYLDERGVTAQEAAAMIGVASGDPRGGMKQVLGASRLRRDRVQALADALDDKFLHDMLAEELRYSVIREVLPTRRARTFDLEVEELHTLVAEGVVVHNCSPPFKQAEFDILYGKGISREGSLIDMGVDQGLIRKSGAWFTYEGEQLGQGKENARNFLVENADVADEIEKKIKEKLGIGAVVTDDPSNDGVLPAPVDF

[16] = molecular target: T3, Replicative DNA helicase DnaB (Mycobacterium tuberculosis, UniProt P9WMR3); experiment: DnaB intein splicing inhibitors, dose response, biochemical, cell-free fluorescence (AID 449749); assay type: functional
T3 sequence (P9WMR3 whole entry): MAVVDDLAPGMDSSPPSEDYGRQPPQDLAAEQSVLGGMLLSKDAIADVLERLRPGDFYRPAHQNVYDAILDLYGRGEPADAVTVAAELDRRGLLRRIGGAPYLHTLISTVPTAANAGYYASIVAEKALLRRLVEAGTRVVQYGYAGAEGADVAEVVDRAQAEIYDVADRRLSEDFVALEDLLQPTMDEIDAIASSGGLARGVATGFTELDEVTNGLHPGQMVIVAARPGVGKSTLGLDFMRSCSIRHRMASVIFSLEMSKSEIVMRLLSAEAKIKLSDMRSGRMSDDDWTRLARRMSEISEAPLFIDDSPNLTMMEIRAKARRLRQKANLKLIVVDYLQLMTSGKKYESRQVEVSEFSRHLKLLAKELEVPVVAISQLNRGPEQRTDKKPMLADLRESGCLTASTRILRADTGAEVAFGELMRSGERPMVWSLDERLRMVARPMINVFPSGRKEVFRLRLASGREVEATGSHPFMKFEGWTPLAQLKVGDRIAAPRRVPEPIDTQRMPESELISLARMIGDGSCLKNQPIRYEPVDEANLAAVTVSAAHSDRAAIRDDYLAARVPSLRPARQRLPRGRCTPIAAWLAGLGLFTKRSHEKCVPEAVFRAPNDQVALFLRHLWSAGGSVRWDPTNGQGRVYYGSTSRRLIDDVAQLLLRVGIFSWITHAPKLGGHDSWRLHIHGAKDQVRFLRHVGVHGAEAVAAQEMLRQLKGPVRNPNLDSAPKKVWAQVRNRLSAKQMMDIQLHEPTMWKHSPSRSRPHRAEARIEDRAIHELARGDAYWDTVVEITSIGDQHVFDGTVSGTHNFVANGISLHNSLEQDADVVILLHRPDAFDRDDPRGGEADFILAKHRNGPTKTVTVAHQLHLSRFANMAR

[17] = viability of PTEN-deleted HCT116 cells – cell-based, HCT116 PTEN knockout, dose response (AID 1047); assay type: functional;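 further: HCT116 colon tumor cells with PTEN knocked out; cells exposed to compound for 60 hours before readout; potency for loss of cell viability measured by luminescence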
[18] = Luminescence Cell-Based Dose Retest to Confirm Inhibitors of Cancer Stem Cells. [Related pubchem assays (depositor defined):AID2717, AID2721]; assay type: functional; conditions: Homo sapiens
[19] = cells; assay type: functional
[20] = inhibition of ARNT PAS-B/TACC3 complex formation – biochemical, AlphaScreen, cherry-picked samples, confirmation (AID 651703); assay type: functional, Homo sapiens;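 further: His-tagged ARNT PAS-B domain paired with GST-TACC3 E629A dimer coactivator fragment; potency of inhibitors that break up the complex and lower AlphaScreen signal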
[21] = molecular target: T4, ORF 73 (Human herpesvirus 8, UniProt O40947); experiment: KSHV LANA DNA-binding disruption – biochemical, fluorescence polarization, cherry-picked samples, dose response (AID 504725); set-up: species or system Human gammaherpesvirus 8;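 further: fluorescence polarization of a labeled DNA duplex reporting LANA DNA binding; potency is for inhibitors that block LANA binding to the DNA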
T4 sequence (O40947 whole entry): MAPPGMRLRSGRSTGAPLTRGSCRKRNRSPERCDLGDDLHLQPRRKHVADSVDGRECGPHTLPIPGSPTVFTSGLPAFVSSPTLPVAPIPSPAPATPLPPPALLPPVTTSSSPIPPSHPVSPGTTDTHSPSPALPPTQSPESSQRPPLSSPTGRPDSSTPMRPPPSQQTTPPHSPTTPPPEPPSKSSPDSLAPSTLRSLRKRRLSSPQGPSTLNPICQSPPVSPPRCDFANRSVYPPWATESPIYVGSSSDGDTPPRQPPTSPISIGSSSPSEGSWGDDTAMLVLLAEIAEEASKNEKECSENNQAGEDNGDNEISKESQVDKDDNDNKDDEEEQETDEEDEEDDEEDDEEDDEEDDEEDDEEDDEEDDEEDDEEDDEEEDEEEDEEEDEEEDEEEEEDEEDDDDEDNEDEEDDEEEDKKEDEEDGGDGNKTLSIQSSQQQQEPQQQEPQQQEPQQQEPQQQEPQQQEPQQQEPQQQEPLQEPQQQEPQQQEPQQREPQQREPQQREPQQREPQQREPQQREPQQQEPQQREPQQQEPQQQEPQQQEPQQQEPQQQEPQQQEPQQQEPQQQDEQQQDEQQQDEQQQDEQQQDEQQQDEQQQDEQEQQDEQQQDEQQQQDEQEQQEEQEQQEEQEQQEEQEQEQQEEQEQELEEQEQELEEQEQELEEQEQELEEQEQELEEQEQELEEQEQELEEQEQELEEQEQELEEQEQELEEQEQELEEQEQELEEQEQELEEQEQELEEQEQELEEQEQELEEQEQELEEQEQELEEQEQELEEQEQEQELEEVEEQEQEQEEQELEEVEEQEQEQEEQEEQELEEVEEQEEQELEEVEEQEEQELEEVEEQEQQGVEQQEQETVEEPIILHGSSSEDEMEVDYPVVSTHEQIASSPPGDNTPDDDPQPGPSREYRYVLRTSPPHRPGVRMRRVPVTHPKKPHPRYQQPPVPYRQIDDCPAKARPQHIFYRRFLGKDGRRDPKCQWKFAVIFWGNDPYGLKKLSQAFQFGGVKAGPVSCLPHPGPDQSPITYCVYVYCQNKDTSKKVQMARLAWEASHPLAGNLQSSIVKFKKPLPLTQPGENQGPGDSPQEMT

DNA dC->dU-editing enzyme APOBEC-3G, sequence (Q9HC16 whole entry): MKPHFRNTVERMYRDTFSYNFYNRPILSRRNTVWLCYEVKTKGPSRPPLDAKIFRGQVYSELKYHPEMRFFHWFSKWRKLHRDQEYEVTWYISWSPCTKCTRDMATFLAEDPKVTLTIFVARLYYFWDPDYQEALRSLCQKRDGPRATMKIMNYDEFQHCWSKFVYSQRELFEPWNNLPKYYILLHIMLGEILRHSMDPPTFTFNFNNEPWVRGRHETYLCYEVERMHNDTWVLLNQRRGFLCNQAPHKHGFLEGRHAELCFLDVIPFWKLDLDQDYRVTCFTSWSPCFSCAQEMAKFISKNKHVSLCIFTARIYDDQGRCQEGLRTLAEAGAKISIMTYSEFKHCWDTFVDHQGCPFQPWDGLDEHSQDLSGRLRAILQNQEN
DNA dC->dU-editing enzyme APOBEC-3A, sequence (P31941 whole entry): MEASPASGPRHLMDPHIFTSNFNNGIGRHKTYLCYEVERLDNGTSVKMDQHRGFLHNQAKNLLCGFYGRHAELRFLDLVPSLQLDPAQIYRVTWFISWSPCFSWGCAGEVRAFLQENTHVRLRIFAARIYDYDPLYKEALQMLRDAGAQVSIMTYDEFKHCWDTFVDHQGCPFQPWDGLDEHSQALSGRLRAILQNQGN
Peroxisome proliferator-activated receptor gamma/Nuclear receptor coactivator 3, sequence (P37231 whole entry): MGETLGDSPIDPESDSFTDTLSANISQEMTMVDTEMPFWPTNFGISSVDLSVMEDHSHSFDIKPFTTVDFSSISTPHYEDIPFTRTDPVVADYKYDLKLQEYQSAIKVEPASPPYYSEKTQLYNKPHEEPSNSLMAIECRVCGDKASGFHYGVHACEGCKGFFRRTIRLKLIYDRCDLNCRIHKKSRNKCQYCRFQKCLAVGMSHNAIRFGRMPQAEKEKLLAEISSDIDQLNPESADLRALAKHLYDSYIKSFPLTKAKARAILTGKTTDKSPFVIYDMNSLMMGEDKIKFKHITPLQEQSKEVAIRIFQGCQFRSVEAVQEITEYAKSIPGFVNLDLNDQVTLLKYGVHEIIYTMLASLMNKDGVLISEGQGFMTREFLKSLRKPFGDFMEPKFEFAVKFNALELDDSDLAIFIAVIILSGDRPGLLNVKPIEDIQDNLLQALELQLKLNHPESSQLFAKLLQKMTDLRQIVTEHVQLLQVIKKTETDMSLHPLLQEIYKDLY
Peroxisome proliferator-activated receptor gamma/Nuclear receptor coactivator 3, sequence (Q9Y6Q9 whole entry, further chain): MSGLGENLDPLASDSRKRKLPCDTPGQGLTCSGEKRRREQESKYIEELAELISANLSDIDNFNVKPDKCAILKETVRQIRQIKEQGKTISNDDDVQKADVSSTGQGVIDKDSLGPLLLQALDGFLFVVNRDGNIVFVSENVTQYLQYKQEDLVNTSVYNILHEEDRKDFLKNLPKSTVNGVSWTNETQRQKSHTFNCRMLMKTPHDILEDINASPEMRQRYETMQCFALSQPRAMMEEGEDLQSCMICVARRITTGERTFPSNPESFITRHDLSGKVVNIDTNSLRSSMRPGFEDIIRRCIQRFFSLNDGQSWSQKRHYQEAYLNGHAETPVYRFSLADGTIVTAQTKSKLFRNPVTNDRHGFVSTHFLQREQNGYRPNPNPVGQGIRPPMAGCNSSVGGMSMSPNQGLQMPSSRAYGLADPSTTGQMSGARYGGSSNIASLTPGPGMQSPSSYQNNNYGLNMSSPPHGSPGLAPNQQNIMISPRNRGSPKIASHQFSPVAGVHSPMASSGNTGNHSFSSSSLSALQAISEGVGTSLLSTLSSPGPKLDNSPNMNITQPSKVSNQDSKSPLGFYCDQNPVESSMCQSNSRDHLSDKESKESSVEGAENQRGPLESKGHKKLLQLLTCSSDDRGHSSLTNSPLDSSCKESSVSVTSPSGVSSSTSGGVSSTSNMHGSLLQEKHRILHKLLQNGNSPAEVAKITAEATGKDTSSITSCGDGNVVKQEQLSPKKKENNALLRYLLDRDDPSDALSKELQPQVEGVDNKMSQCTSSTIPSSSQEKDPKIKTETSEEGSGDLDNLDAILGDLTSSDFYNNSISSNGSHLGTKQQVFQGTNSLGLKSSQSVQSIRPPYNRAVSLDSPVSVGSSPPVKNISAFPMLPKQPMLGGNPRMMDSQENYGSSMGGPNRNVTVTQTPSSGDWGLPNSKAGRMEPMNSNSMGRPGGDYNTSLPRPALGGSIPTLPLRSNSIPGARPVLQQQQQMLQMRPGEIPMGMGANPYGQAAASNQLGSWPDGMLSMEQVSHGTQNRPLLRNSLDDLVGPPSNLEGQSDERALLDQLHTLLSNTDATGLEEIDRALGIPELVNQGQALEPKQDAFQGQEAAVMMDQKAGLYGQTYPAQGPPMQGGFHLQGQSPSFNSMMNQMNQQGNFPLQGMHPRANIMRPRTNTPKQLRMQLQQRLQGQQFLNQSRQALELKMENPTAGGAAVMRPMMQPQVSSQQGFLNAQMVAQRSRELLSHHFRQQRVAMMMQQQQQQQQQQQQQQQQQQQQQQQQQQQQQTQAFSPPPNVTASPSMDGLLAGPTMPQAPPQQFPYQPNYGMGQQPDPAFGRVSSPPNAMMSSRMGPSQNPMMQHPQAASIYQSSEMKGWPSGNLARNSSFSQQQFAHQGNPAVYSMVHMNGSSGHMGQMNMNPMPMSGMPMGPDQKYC
Peroxisome proliferator-activated receptor gamma/Nuclear receptor coactivator 1, sequence (P37231 whole entry): as the sequence (P37231 whole entry) above
Peroxisome proliferator-activated receptor gamma/Nuclear receptor coactivator 1, sequence (Q15788 whole entry, further chain): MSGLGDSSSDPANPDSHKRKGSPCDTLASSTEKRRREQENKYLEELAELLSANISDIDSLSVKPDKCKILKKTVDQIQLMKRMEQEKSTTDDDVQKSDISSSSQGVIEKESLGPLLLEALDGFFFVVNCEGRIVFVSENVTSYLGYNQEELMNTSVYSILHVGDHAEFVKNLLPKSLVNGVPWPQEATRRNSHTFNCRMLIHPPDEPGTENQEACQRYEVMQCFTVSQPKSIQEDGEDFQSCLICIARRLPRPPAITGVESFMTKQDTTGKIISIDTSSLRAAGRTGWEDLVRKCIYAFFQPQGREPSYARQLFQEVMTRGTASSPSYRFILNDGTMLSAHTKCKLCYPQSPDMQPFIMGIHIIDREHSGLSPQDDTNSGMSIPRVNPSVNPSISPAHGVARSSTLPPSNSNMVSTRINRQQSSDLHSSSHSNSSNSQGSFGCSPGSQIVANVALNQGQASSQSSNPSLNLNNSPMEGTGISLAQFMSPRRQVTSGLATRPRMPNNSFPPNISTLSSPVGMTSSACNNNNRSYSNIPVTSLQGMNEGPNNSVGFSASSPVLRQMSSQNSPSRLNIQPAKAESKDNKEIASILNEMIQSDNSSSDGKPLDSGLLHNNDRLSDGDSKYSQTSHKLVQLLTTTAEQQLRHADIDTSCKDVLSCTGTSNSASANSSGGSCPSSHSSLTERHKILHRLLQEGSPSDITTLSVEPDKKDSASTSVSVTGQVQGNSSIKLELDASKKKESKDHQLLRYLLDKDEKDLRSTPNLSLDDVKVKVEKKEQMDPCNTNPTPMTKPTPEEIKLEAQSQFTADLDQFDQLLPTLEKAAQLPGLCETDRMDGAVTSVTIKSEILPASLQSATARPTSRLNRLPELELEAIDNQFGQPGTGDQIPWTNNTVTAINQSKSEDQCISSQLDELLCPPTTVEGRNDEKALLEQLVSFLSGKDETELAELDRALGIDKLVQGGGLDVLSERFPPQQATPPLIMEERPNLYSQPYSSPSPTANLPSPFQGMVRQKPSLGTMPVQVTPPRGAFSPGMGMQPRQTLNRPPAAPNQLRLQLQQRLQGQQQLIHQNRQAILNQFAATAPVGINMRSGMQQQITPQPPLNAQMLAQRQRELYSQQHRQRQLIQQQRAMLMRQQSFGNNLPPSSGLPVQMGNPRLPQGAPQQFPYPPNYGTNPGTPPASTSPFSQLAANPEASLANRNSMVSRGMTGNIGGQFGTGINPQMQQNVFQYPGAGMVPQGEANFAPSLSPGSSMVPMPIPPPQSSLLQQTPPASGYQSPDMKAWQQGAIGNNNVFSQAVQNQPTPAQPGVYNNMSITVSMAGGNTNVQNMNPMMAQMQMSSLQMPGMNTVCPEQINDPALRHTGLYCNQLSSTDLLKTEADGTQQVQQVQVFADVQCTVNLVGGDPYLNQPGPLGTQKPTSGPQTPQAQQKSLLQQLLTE
Alkaline phosphatase, placental type, sequence (P05187 whole entry): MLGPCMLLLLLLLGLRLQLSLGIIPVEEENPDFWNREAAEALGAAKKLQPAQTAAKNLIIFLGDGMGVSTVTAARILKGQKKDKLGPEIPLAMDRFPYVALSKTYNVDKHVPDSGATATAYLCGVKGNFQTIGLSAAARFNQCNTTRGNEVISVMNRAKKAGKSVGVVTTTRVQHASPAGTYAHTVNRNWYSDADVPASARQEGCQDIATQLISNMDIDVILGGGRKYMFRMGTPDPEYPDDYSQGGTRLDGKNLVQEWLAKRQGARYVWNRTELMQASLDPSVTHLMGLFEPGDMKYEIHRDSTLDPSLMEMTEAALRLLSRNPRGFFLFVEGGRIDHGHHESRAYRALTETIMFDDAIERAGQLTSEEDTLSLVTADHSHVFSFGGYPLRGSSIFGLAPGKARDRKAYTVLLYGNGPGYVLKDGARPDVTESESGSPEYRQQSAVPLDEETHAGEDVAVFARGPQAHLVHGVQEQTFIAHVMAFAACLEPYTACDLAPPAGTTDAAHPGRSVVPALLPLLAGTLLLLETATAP

In the case of `CS(=O)(=O)N(CC(=O)NCc1ccncc1)Cc1ccc(Cl)cc1`, the EC50 [1] was > 79.4 µM (not active), the EC50 [2] was > 79.4 µM (not active) and the EC50 [3] was > 79.4 µM (not active).

For `CC(=O)NC1=NC(=O)/C(=C/c2cc(C)n(-c3ccc(NC(C)=O)cc3)c2C)S1`, the EC50 [1] was > 79.4 µM (not active), the EC50 [2] was > 79.4 µM (not active) and the EC50 [3] was > 79.4 µM (not active).

For `CCOC(=O)c1cc(C)nc(S)c1C#N`, the IC50 [4] was 4.65 µM (active) and the IC50 [5] was > 100 µM (inactive).

For `CCCCCC/C=C/c1ccc(OC)c([C@H]2[C@H]3C=CC[C@@H](C)[C@@H]3C(=O)N2Cc2ccccc2)c1`, the IC50 [6] was > 80 µM (inactive).

In the case of `Cc1[nH]c2nc(S)nc-2cc1Br`, the IC50 [4] was 1.98 µM (active) and the IC50 [5] was > 100 µM (inactive).

In the case of `O=C(CN1C(=O)c2ccccc2S1(=O)=O)c1ccccc1`, the AC50 [7] was 1.36 µM (active), the EC50 [8] was > 50 µM (not active) and the EC50 [9] was > 100 µM (not active).

For `Cc1ccc(-c2nc(N)nn2-c2ccccc2)cc1`, the IC50 [10] was > 100 µM (inactive), the IC50 [11] was > 100 µM (inactive) and the IC50 [12] was > 100 µM (not active).

In the case of `Cc1c(CCOC(=O)c2ccc(N3CCOCC3)c([N+](=O)[O-])c2)sc[n+]1CC#N`, the IC50 [13] was 5.68 µM (active).

For `O=C(Nc1ccc(NC(=O)c2ccco2)nc1)c1ccccn1`, the EC50 [8] was > 50 µM (not active) and the EC50 [9] was 9.44 µM (active).

In the case of `CC(C)Cn1c(-c2ccccc2F)n[nH]c1=S`, the IC50 [4] was 5.39 µM (active) and the IC50 [5] was > 100 µM (inactive).

For `Cc1noc(C)c1CN(C(=S)NC1CC2CCC1C2)c1ccccc1` (stereo not given), the IC50 [13] was 3.74 µM (active).

In the case of `Cc1n[nH]c2c1C(c1ccc(-c3ccc(Cl)cc3)o1)C(C#N)=C(N)O2` (stereo not given), the EC50 [14] was 9.79 µM (active), the EC50 [15] was 28.6 µM (active) and the AC50 [16] was 41.8 µM (active). The EC50 [17] was 10.6 µM (active), the AC50 [18] was 6.86 µM (active) and the EC50 [1] was > 79.4 µM (not active). The EC50 [2] was > 79.4 µM (not active), the IC50 [19] was 39.7 µM (active) and the EC50 [3] was > 79.4 µM (not active).

In the case of `O=C(C1CCC1)N1CCN(S(=O)(=O)c2ccc([N+](=O)[O-])cc2)CC1`, the IC50 [6] was > 80 µM (inactive).

For `O=C(CSc1nnc(-c2ccncc2)[nH]1)c1ccc(O)c(O)c1`, the IC50 [10] was 6.95 µM (active) and the IC50 [11] was 6.53 µM (active).

With `CC1(C)Oc2ccc([N+](=O)[O-])cc2O1` the IC50 [10] was > 100 µM (inactive) and the IC50 [11] was > 100 µM (inactive).

In the case of `C/C(=N/NC(=O)c1ccncc1)c1cc2ccc(O)cc2oc1=O`, the AC50 [20] was 116 µM (active) and the AC50 [21] was 0.544 µM (active).

With `COc1ccc(/C=N\NC(=O)c2sccc2C)cc1Cn1nc(C)cc1C` the IC50 [6] was > 80 µM (inactive).
